Experimental data published in patent US20230116399A1, “Tumor Homing Statin Derivatives” (Da Zen Theranostics, Inc., priority 2019, published 2023).

Key:
[1] = Stability of conjugates in mouse blood serum at 37° C. for 3 hours (LC-MS/MS); type: in vitro ADME; conditions: for amount of conjugate at 3 h (value at time 0 is 100) / degradation/release of the statin from the conjugate: mouse blood serum, 37° C., 3 h; for stability when exposed to serum: serum at body temperature for at least 3 hours
Method: Comparative example 1A-V: Synthesis of DZ1-SIM rapid release ester (RRE) and comparison of stability to an ELSD (here: DZ1-SIM). A rapid release ester (RRE) is synthesized as described below, linking DZ1 to Simvastatin (DZ1-SIM RRE or “DZ2c”, compound 8) and is tested in comparison to the ELSD (here: DZ1-SIM or “DZ2b”, compound 14, synthesized as described above). Both compounds are incubated in mouse blood serum at 37° C. for 3 hours, after which samples are taken and tested for degradation of the conjugates by testing for the unconjugated statin as described in example 6 herein-below (LC-MS/MS-025 with positive ion, ESI, MRM detection and HPLC). […] The value at time 0 for each of the samples is 100.

[2] = test system: RhoA/B in H-1975 human lung cancer tumors; assay: RhoA/B membrane staining of tumor tissue, H-1975 mouse model; type: in vivo, mice; conditions: 20 mg/kg
Method: RhoA/RhoB membrane staining of tumor tissue of a H-1975 human lung cancer cell mouse model is performed as described below, and the tumor-bearing mice are treated with a THSD (here an ALSD of formula FIId, “DZ2a”, compound 7) in comparison to the corresponding unconjugated dye (“DZ1”) and to Gefinitib (an EGFR inhibitor drug used for treatment of certain breast, lung and other cancers).
H-1975 cells, a cell model for human lung cancer that is resistant to Gefitinib (an EGFR inhibitor drug used for treatment of certain breast, lung and other cancers) are cultured as described above and injected subcutaneously into mice to develop tumors. The mice and the tumors that are formed are systemically exposed to an ALSD (here of formula FIId, “DZ2a”, compound 7) by intravenous injection. The tumor-bearing mice are treated with either Gefitinib (20 mg/kg), or with an ALSD (here of formula FIId, “DZ2a”, compound 7, 5 mg/kg), an unconjugated dye of formula III (“DZ1”, 5 mg/kg) or a combination of the ALSD with Gefitinib.
For immunostaining of tumor tissue, the animals are sacrificed by prescribed and approved euthanasia techniques. Tumor tissue (maximum thickness 3 mm) is sliced, formalin fixated, embedded into paraffin blocks which are sectioned and processed into paraffin section slides. […]

[3] = test system: 22Rv1 human prostate carcinoma tumors; assay: Tumor volume of 22Rv1 tumors grown subcutaneously in mice; type: in vivo; conditions: 8 mg/kg, intravenously injected
Method: Example 1D: 22Rv1 human prostate carcinoma cells are cultured as described above, separated from the medium, resuspended in 50% phosphate buffered saline (PBS) and 50% BD Matrigel™ (BD Biosciences, CA), and then the re-suspended cells are injected and grown subcutaneously in mice. […] The decrease of the THSD in the tumors at 2 and 4 weeks, respectively, as determined by NIR signal, is less than about 30%.
Example 1E: 22Rv1 human prostate carcinoma cells are cultured, injected and grown subcutaneously in mice as described above in example 1D. Tumor volume is monitored by measuring the size by caliper and calculating volume as described in example 9 below. The mice are intravenously injected with the following: ALSD of formula FIId, “DZ2a”, compound 7, the corresponding unconjugated dye (here: DZ1), unconjugated Simvastatin, a statin drug (SIM), and docetaxel (DOC), a cancer drug, and a mixture of the ALSD with DOC. Each active was administered in an amount of 5 mg/kg for the ALSD, DZ1, and SIM, except, in case of DOC, 8 mg/kg. A slower rate of increased tumor volume indicates tumor suppressive activity.

[4] = test system: L858R/T790M vs wild-type EGFR; conditions: inhibiting phosphorylation of EGFR; cited from earlier work
H1650 (LC) = assay: MTT cell viability, H1650; type: cell-based, human; conditions: Homo sapiens, NCI-H1650, 48 h / 24 hours, relative IC50
Method: (§1) Cell culture: In the following examples, unless otherwise specified, all cell lines are purchased from American Type Culture Collection and cultured in American Type Culture Collection (ATCC)-recommended media, with fetal bovine serum (FBS) to a final concentration of 10% and 1×penicillin/streptomycin at 37° C. with 5% CO2 in a cell culture incubator, unless otherwise specified. Unless otherwise specified, culture is 2D. Where culture is 3D, low attachment plates are used, with the same media. C4-2B (parental cell line and drug-resistant cells derived therefrom) are cultured in RPMI-1640 with 10% FBS. MDVR cells (an Enzalutamide-resistant variety of C4-2B prostate cancer cells formed as described in Example 4 below) are cultured as indicated for the parental C4-2B cells. 22RV1 Prostate Cancer (PC) cells (ATCC® CRL-2505™, a human prostate carcinoma cell line of epithelial morphology) are cultured in RPMI-1640 with 10% FBS. A549 cells (ATCC® CCL-185™, a human lung carcinoma cell line of epithelial morphology) are cultured in F-12K medium with 10% FBS. A549/DDP cells (Cells were described in DOI: 10.3892/mmr.2014.2163 and in doi: 10.7150/jca.19426; cisplatin resistant cells may be established from exposing parental A549 cells to cisplatin for an extended time). MDR A549/cisplatin lung adenocarcinoma cell line, drug resistant) are cultured in F-12K medium with 10% FBS. H1975 cells (ATCC® CRL-5908™, a human adenocarcinoma non-small cell lung cancer cell line of epithelial morphology) are cultured in RPMI-1640 medium with 10% FBS; H1975 cells are a cell model for human lung cancer that is resistant to Gefitinib (an EGFR inhibitor drug used for treatment of certain breast, lung and other cancers). H1650 cells (ATCC® CRL-5883™, a adenocarcinoma/bronchoalveolar carcinoma lung cancer cell line of epithelial morphology) are cultured in RPMI-1640 medium with 10% FBS. […]

A549 (LC) = assay: MTT cell viability, A549; type: cell-based, human; conditions: Homo sapiens, 48 h / 24 hours, relative IC50
Method: as §1

EZ-resistant C4-2B (PC) = assay: MTT cell viability, EZ-resistant C4-2B (MDVR); type: cell-based; conditions: Homo sapiens, 48 h / 24 hours, relative IC50
Method: as §1, with “FBS.” for “FBS. H1975 cells (ATCC® CRL-5908™, a human adenocarcinoma non-small cell lung cancer cell line of epithelial morphology) are cultured in RPMI-1640 medium with 10% FBS; H1975 cells are a cell model for human lung cancer that is resistant to Gefitinib (an EGFR inhibitor drug used for treatment of certain breast, lung and other cancers). H1650 cells (ATCC® CRL-5883™, a adenocarcinoma/bronchoalveolar carcinoma lung cancer cell line of epithelial morphology) are cultured in RPMI-1640 medium with 10% FBS.”

PC9 (LC) = assay: MTT cell viability, PC9; type: cell-based, human; conditions: Homo sapiens, 48 h / 24 hours, relative IC50
Method: as §1

PC3 (PC) = assay: MTT cell viability, PC3; type: cell-based; conditions: Homo sapiens, 48 h / 24 hours, relative IC50
Method: as §1, with “FBS.” for “FBS. H1975 cells (ATCC® CRL-5908™, a human adenocarcinoma non-small cell lung cancer cell line of epithelial morphology) are cultured in RPMI-1640 medium with 10% FBS; H1975 cells are a cell model for human lung cancer that is resistant to Gefitinib (an EGFR inhibitor drug used for treatment of certain breast, lung and other cancers). H1650 cells (ATCC® CRL-5883™, a adenocarcinoma/bronchoalveolar carcinoma lung cancer cell line of epithelial morphology) are cultured in RPMI-1640 medium with 10% FBS.”

H1975 (LC) = assay: MTT cell viability, H1975; type: cell-based, human; conditions: Homo sapiens, NCI-H1975, 48 h / 24 hours, relative IC50
Method: as §1

22RV1 (PC) = assay: MTT cell viability, 22RV1; type: cell-based, human
Method: as §1
(§2) […] For each cell line, the IC50 is determined for each drug, i.e. the ELSD, the ALSD, and for the corresponding unconjugated statin (Simvastatin), in concentrations from 0.1-100 μM. […]

human cancer cell lines = assay: MTT cell viability, summary over the cancer cell lines; type: cell-based; conditions: summary of the table of IC50, read-out: range of IC50 over the cancer cell lines
Method: Example 7: The experiment is performed by cell assay essentially as described above in example 4. […]
The cell lines are cultured according to the protocols as described above, then each of the cell lines are treated for 48 h either with an ELSD (here of formula FId, “DZ2b” or compound 14) or with an ALSD (here of formula FIId, “DZ2a” or compound 7). For each cell line, the IC50 is determined for each drug, i.e. the ELSD, the ALSD, and for the corresponding unconjugated statin (Simvastatin), in concentrations from 0.1-100 μM.
In the controls (not shown in the figures), the cells are exposed to DMSO (vehicle) for a final concentration that equals the highest concentration of the drug tested, to a maximum concentration less than 0.1% v/v. […] The absorbance density of the supernatant is read on a 96-well microplate reader at wavelength 595 nm.

A549DDP (LC) = assay: MTT cell viability, A549DDP; type: cell-based, human; conditions: Homo sapiens, A549/DDP, 48 h / 24 hours, relative IC50
Method: as §1, §2

H446 (LC) = assay: MTT cell viability, H446; type: cell-based, human; conditions: Homo sapiens, NCI-H446, 48 h / 24 hours, relative IC50
Method: as §1

CCC(C)(C)C(=O)O[C@H]1C[C@@H](C)C=C2C=C[C@H](C)[C@H](CC[C@@H]3C[C@@H](OC(=O)CCCCCN4/C(=C/C=C5\CCCC(/C=C/C6=[N+](CCCCS(=O)(=O)[O-])c7ccccc7C6(C)C)=C5Cl)C(C)(C)c5ccccc54)CC(=O)O3)[C@H]21 [DZ2c]
amount of conjugate at 3 h (value at time 0 is 100) [1]: 10
degradation/release of the statin from the conjugate [1]: 90%
stability when exposed to serum [1]: less stable and more easily degrades

COc1cc2ncnc(Nc3ccc(F)c(Cl)c3)c2cc1OCCCN1CCOCC1 [Gefitinib]
RhoA/B staining of tumor cell membranes [2]: staining persists in the membranes

CC(=O)O[C@@]12CO[C@@H]1C[C@H](O)[C@@]1(C)C(=O)[C@H](O)C3=C(C)[C@@H](OC(=O)[C@H](O)[C@@H](NC(=O)OC(C)(C)C)c4ccccc4)C[C@@](O)([C@@H](OC(=O)c4ccccc4)[C@H]21)C3(C)C [Docetaxel]
tumor suppressive activity (tumor volume increase) [3]: no or very mild tumor suppressive activity
tumor suppressive activity (tumor volume increase) ([3]; listed as DOC): no significant tumor suppressive activity

C=CC(=O)Nc1cc(Nc2nccc(-c3cn(C)c4ccccc34)n2)c(OC)cc1N(C)CCN(C)C [AZD9291, Osimertinib]
greater potency against L858R/T790M than wild-type EGFR [4]: 100-200 times

CCC(C)(C)C(=O)O[C@H]1C[C@@H](C)C=C2C=C[C@H](C)[C@H](CC[C@@H](O)C[C@@H](O)CC(=O)OCCNC(=O)CCCCCN3/C(=C/C=C4\CCCC(/C=C/C5=[N+](CCCCS(=O)(=O)O)c6ccccc6C5(C)C)=C4Cl)C(C)(C)c4ccccc43)[C@H]21 [DZ2b]
IC50 (H1650 (LC)): 11.8 µM
IC50 (A549 (LC)): 5.4 µM
IC50 (EZ-resistant C4-2B (PC)): 3.8 µM
IC50 (PC9 (LC)): 5.6 µM
IC50 (PC3 (PC)): 6 µM
IC50 (H1975 (LC)): 6.4 µM
IC50 (22RV1 (PC); 22RV1, treated for 48 h /, relative IC50, listed as ELSD): 7.8 µM
IC50 (22RV1 (PC); Homo sapiens, 22Rv1, 22RV1, treated for 48 h /, relative IC50): 10.8 µM
IC50 (human cancer cell lines): 2 to 12 µM
amount of conjugate at 3 h (value at time 0 is 100) [1]: 100
degradation/release of the statin from the conjugate [1]: no degradation/release
stability when exposed to serum [1]: stable and not subject to degradation
IC50 (A549DDP (LC)): 2.1 µM
IC50 (H446 (LC)): 3.4 µM
